Test results as given in patent publication US20040009899A1, “Treating dominant disorders” (priority 2002, published 2004).

Columns and labels:
R6/2 mice [1] = experiment: Survival of R6/2 transgenic mice treated with PNA; assay type: in vivo, mouse
Protocol: Cannulation and microsurgery—Method 2: Pump cannulas were prepared 48 hours before surgery. For adaptation to mice, Alzet pump cannulas were ground to a length of 2 mm. The cannulas then were sterilized by gas ozonation. Mice were anesthetized via i.p. injection with 100 mg/kg of a ketamine/xylazine solution containing 8 mg/mL ketamine and 1 mg/mL xylazine in 0.9% saline. Once anesthetized, each mouse was cannulated. Each anesthetized mouse was placed in a Stoelting Stereotaxic Frame with a mouse adapter (Stoelting Instruments). An incision was made using a scalpel, and the skin and tissue were pulled back with swabs to reveal the skull. The cannulation site was positioned for optimum access to the ventricle, at coordinates AP −0.2 mm, Horiz −1 mm from bregma. A cannula entry port and two bone screw ports were opened in the skull using a Dremel Flex Shaft Drill (Stoelting Instruments) with a 2.1 mm burr. The cannula was lowered into place and affixed using Loctite 454 (Loctite Corp., Avon, Ohio). An Alzet Mini-Osmotic Pump was inserted into a pouch beneath the skin and attached to the cannula with silastic tubing. The wound was closed using wound clips and the animal was allowed to recuperate.
Delivery of PNA oligomer solutions: All handling of tubing and cannulas was done under sterile conditions. PNA solutions at the correct concentrations were diluted in artificial cerebrospinal fluid (ACSF; 147 mM NaCl, 4.02 mM KCl, 1.2 mM CaCl2, pH 7.5) and then filtered for delivery. As a control, ACSF containing no PNA was delivered.
Experiments were conducted to determine whether PNA-mediated inhibition of mutant huntingtin expression increased survival and/or reversed features of pathophysiology. R6/2 and non-transgenic mice were divided into two groups of three to five mice each, and treated with either HDs or ACSF for approximately ten weeks, beginning at five to six weeks of age. Treated animals received a dose of 0.15 mg/kg of the HDs PNA oligomer, administered by continuous infusion through an Alzet pump. All ACSF-treated transgenic mice died by three months of age.
In other experiments, R6/2 mice were divided into five groups (designated groups 1-5) containing eight to ten animals each. Groups 1-4 received either saline (group 1) or a specific amount of HDs (groups 2-4). Group 5 included untreated R6/2 mice. A sixth group included untreated non-transgenic B6CBA control mice. At 8 weeks of age, each mouse was weighed to establish a weight stability baseline. Baselines for clasping behavior, motility, and motor skill were established at 9 weeks of age using the methods described in Example 1.
At 9 weeks of age, the mice in each group received saline (group 1) or HDs at 2.0 mg/kg, 5.0 mg/kg, or 20.0 mg/kg (groups 2, 3, and 4, respectively) by i.p. injection every 48 hours. The injections continued through 13 weeks of age (i.e., treatment for […]). Weight stability, clasping behavior, motility, and motor skill were assessed weekly during the treatment period. At the time of death or after the treatment period, the brain of each mouse was removed using standard methods. The brains were divided into hemispheres, and one hemisphere of each brain was saved for protein and mRNA analysis. The remaining hemispheres were fixed directly in 10% formalin for 5-7 days. After fixing, the brain hemispheres were weighed individually and processed for sectioning and pathophysiology.

R6/2 mice [2] = experiment: Bar test to assess motor skill; assay type: in vivo, mouse; settings: compared to untreated or saline treated R6/2 mice
From the text: Bar test to assess motor skill: Each mouse was held by its tail and allowed to grasp a bar (0.25 cm in diameter, 60 cm long) suspended 30 cm above a padded bench. After the mouse had firmly grasped the bar, the test was begun by releasing its tail. The mouse was allowed two minutes to “escape” by climbing along the bar to one of the bar supports. The mouse was given both performance and time ratings. Performance ratings were based on the following scale: 0, unable to hold bar; 1, holds bar, unable to bring hind limbs to bar; 2, holds bar, draws hind limbs to bar (i.e., 3 paws firmly on bar); 3, holds bar, moves along bar (i.e., moves at least 2 inches in a coordinated manner along bar); 4, escapes (i.e., mouse touches a bar support with one paw). Time ratings were based on the following scale: 0, unable to hold bar (0-3 seconds); 1, holds bar for 4-30 seconds; 2, holds bar for 31-60 seconds; 3, holds bar for 61-90 seconds; 4, holds bar for 91-120 seconds. If the mouse had not reached one of the bar supports by the end of the two minute test period it was removed from the bar. […]
At 9 weeks of age, the mice in each group received saline (group 1) or HDs at 2.0 mg/kg, 5.0 mg/kg, or 20.0 mg/kg (groups 2, 3, and 4, respectively) by i.p. injection every 48 hours. […] Weight stability, clasping behavior, motility, and motor skill were assessed weekly during the treatment period. […]

## HDs: sense PNA oligomer, 14 residues, 5′-GGACTGCCGTGCCG-3′ (SEQ ID NO:3), specific for the expanded human HD allele (all peptide nucleic acid (PNA))
R6/2 mice [1]; 0.15 mg/kg continuous infusion by Alzet pump
  survival of longest-surviving treated animal (one of three): still alive and healthy at six months of age
R6/2 mice [1]; 0.15 mg/kg continuous infusion by Alzet pump, about ten weeks from five to six weeks of age, ACSF-treated all died by three months
  survival: improved survival
R6/2 mice [1]; 2.0 mg/kg i.p. every 48 hours from 9 weeks of age
  mice alive at 13 weeks of age: None
R6/2 mice [1]; 5.0 mg/kg i.p. every 48 hours from 9 weeks of age
  mice alive at 13 weeks of age: 50%
R6/2 mice [1]; 20.0 mg/kg i.p. every 48 hours from 9 weeks of age
  mice alive at 13 weeks of age: 20%
R6/2 mice [2]; 5.0 mg/kg i.p. every 48 hours
  motor skill (bar test): increased motor skill
R6/2 mice [2]; 20.0 mg/kg i.p. every 48 hours
  motor skill (bar test): increased motor skill
